Test results: ChEMBL document CHEMBL5543127, “Design, Synthesis, and Biological Evaluation of 2-Phenoxyalkylhydrazide Benzoxazole Derivatives as Quorum Sensing Inhibitors with Strong Antibiofilm Effect” (J Med Chem, 2024)
Values after ≈ are worked out from the molar mass of the structure shown. Active and inactive are the calls of the source. No cut-off for these calls is given here.

Assays:
[1] = system: Staphylococcus aureus; assay: Anti-microbial activity against erythromycin-susceptible Staphylococcus aureus ATCC25923 incubated for 20 hrs By CLSI based micro-dilution method; format: functional
[2] = system: Bacillus pumilus; assay: Anti-microbial activity against Bacillus pumilus CMCC63202 incubated for 20 hrs By CLSI based micro-dilution method; format: functional
[3] = system: Staphylococcus aureus; assay: Anti-microbial activity against methicillin-resistant Staphylococcus aureus ATCC43300 incubated for 20 hrs By CLSI based micro-dilution method; format: functional
[4] = system: Pseudomonas aeruginosa; assay: Anti-microbial activity against Pseudomonas aeruginosa PAO1 incubated for 20 hrs By CLSI based micro-dilution method; format: functional
[5] = system: Escherichia coli; assay: Anti-microbial activity against penicillin-susceptible Escherichia coli ATCC25922 incubated for 20 hrs By CLSI based micro-dilution method; format: functional
[6] = system: Pseudomonas aeruginosa; assay: Anti-microbial activity against penicillin-susceptible Pseudomonas aeruginosa 27853 incubated for 20 hrs By CLSI based micro-dilution method; format: functional
[7] = Inhibition of quorum sensing system in Pseudomonas aeruginosa PAO1 at logarithmic growth period assessed as inhibition of pyocyanin production at 102.4 microg/ml incubated for 18 hrs by pyocyanin inhibition assay; details: dose 102.4 µg/ml
[8] = system: Bacillus subtilis; assay: Anti-microbial activity against Bacillus subtilis ATCC9372 incubated for 20 hrs By CLSI based micro-dilution method; format: functional
[9] = system: Pseudomonas aeruginosa; assay: Inhibition of protease in logarithmic growth phase Pseudomonas aeruginosa PAO1 assessed as inhibition rate at 102.4 microg/ml measured after 32 hrs; details: dose 102.4 µg/ml

Row | SMILES | MIC [1] [µg/mL] | MIC [2] [µg/mL] | MIC [3] [µg/mL] | MIC [4] [µg/mL] | MIC [5] [µg/mL] | MIC [6] [µg/mL] | inhibition [7] | MIC [8] [µg/mL] | inhibition [9] [%]
1 | Brc1ccccc1/C=N/Nc1nc2ccccc2o1 | 128 (≈ 405 µM) | > 512 | 256 (≈ 810 µM) | > 512 | > 512 | > 512 | inactive | 512 (≈ 1620 µM) | 
2 | O=[N+]([O-])c1ccccc1/C=N/Nc1nc2ccccc2o1 | 128 (≈ 453 µM) | 256 (≈ 907 µM) | 256 (≈ 907 µM) | 256 (≈ 907 µM) | > 512 | > 512 | inactive | 512 (≈ 1810 µM) | 
3 | CCCC(=O)N/N=c1\sc2ccccc2n1C | 512 (≈ 2050 µM) | > 512 | > 512 | > 512 | > 512 | > 512 | Active | > 512 | 
4 | O=C(CCCOc1cccc(F)c1)NNc1nc2ccccc2o1 | > 512 | > 512 | > 512 | > 512 | > 512 | 512 (≈ 1550 µM) | inactive | > 512 | 30
5 | CCCCC(=O)N/N=c1\sc2ccccc2n1C | 512 (≈ 1940 µM) | > 512 | > 512 | > 512 | > 512 | > 512 | Active | > 512 | 
6 | Cc1cccc(C(=O)N/N=c2\sc3ccccc3n2C)c1 | > 512 | > 512 | > 512 | > 512 | > 512 | > 512 |  | 512 (≈ 1720 µM) | 
7 | CCCCCCCCC(=O)N/N=c1\sc2ccccc2n1C | > 512 | > 512 | > 512 | > 512 | > 512 | > 512 | Active | > 512 | 
8 | O=C(CCCOc1ccc(F)cc1)NNc1nc2ccccc2o1 | 256 (≈ 777 µM) | 256 (≈ 777 µM) | 256 (≈ 777 µM) | > 512 | > 512 | 128 (≈ 389 µM) | inactive | 512 (≈ 1550 µM) | 30
9 | CCCCCCCCCC(=O)N/N=c1\sc2ccccc2n1C | 512 (≈ 1540 µM) | > 512 | > 512 | > 512 | > 512 | > 512 | Active | 512 (≈ 1540 µM) | 
10 | COc1ccc(OCCCCCC(=O)NNc2nc3ccccc3o2)cc1 | 256 (≈ 693 µM) | 512 (≈ 1390 µM) | 512 (≈ 1390 µM) | > 512 | > 512 | 512 (≈ 1390 µM) | inactive | 512 (≈ 1390 µM) | 
11 | Clc1ccc(/C=N/Nc2nc3ccccc3o2)cc1Cl | 64 (≈ 209 µM) | > 512 | 512 (≈ 1670 µM) | > 512 | > 512 | > 512 | inactive | 512 (≈ 1670 µM) | 
12 | O=C(CCCCCOc1ccc(F)cc1)NNc1nc2ccccc2o1 | 512 (≈ 1430 µM) | > 512 | > 512 | > 512 | > 512 | 512 (≈ 1430 µM) | inactive | 512 (≈ 1430 µM) | 
13 | O=C(NNc1nc2ccccc2s1)c1ccc(F)cc1 | > 512 | > 512 | 256 (≈ 891 µM) | > 512 | > 512 | 512 (≈ 1780 µM) |  | 512 (≈ 1780 µM) | 
14 | Cc1cccc(C(=O)NNc2nc3ccccc3s2)c1 | > 512 | 512 (≈ 1810 µM) | > 512 | > 512 | > 512 | 512 (≈ 1810 µM) | 62.8% | 512 (≈ 1810 µM) | 
15 | CCCCCCCC(=O)N/N=c1\sc2ccccc2n1C | > 512 | > 512 | > 512 | > 512 | > 512 | > 512 |  | > 512 | > 20
16 | O=C(NNc1nc2ccccc2s1)c1cccc(Cl)c1 | > 512 | 256 (≈ 843 µM) | 128 (≈ 421 µM) | > 512 | > 512 | 512 (≈ 1690 µM) |  | 512 (≈ 1690 µM) | 
17 | O=C(CCCCCOc1ccc(Cl)cc1)NNc1nc2ccccc2o1 | 256 (≈ 685 µM) | 256 (≈ 685 µM) | 256 (≈ 685 µM) | > 512 | > 512 | 512 (≈ 1370 µM) | inactive | 512 (≈ 1370 µM) | 
18 | O=C(CCCCCOc1cccc(F)c1)NNc1nc2ccccc2o1 | 256 (≈ 716 µM) | > 512 | > 512 | > 512 | > 512 | 512 (≈ 1430 µM) | inactive | 512 (≈ 1430 µM) | 
19 | CCCCCC(=O)N/N=c1\sc2ccccc2n1C | 256 (≈ 923 µM) | > 512 | > 512 | > 512 | > 512 | > 512 |  | > 512 | 
20 | Cn1c(=NNC(=O)CCCCOc2ccc(Cl)cc2)sc2ccccc21 | 256 (≈ 657 µM) | 256 (≈ 657 µM) |  | > 512 | > 512 | > 512 | Active | 512 (≈ 1310 µM) | 
21 | COc1ccccc1C(=O)N/N=c1\sc2ccccc2n1C | > 512 | > 512 | > 512 | > 512 | > 512 | > 512 |  | > 512 | 
22 | CC(C)c1ccc(/C=N/Nc2nc3ccccc3o2)cc1 | 64 (≈ 229 µM) | 512 (≈ 1830 µM) | 256 (≈ 916 µM) | > 512 | > 512 | > 512 | inactive | 512 (≈ 1830 µM) | 
23 | Cc1ccc(C(=O)N/N=c2\sc3ccccc3n2C)cc1 | > 512 | > 512 | > 512 | > 512 | > 512 | > 512 |  | > 512 | 
24 | Cn1c(=NNC(=O)CCCCOc2ccc(F)cc2)sc2ccccc21 |  | 256 (≈ 685 µM) |  | > 512 | > 512 | > 512 | Active | 512 (≈ 1370 µM) | 
25 | Cc1cccc2sc(NNC(=O)CCCCOc3ccc(Cl)cc3)nc12 | > 512 | 512 (≈ 1310 µM) | 512 (≈ 1310 µM) | > 512 | > 512 | > 512 | 42.2% | 512 (≈ 1310 µM) | 
26 | CC[C@H]1OC(=O)[C@H](C)[C@@H](O[C@H]2C[C@@](C)(OC)[C@@H](O)[C@H](C)O2)[C@H](C)[C@@H](O[C@@H]2O[C@H](C)C[C@H](N(C)C)[C@H]2O)[C@](C)(OC)C[C@@H](C)C(=O)[C@H](C)[C@@H](O)[C@]1(C)O [CLARITHROMYCIN] | 0.25 (≈ 0.334 µM) | 0.25 (≈ 0.334 µM) | 16 (≈ 21.4 µM) | 256 (≈ 342 µM) | 128 (≈ 171 µM) | 128 (≈ 171 µM) |  | 0.25 (≈ 0.334 µM) | 
27 | CCCCCCC(=O)N/N=c1\sc2ccccc2n1C | > 512 | > 512 | > 512 | > 512 | > 512 | > 512 |  | > 512 | 
